± gives the uncertainty stated by the source.
Assay: xn = mol fraction of the nth substance listed

Clc1ccccc1 + CN1CCCC1=O
viscosity [mPa·s], 101 kPa
Details | x2 = 0.1055 | x2 = 0.2097 | x2 = 0.3127 | x2 = 0.4144 | x2 = 0.5149 | x2 = 0.6142 | x2 = 0.7124 | x2 = 0.8094 | x2 = 0.9052
303.15 K | 0.8395 ± 0.021 | 0.9497 ± 0.021 | 1.057 ± 0.022 | 1.153 ± 0.022 | 1.242 ± 0.022 | 1.322 ± 0.022 | 1.39 ± 0.023 | 1.455 ± 0.023 | 1.508 ± 0.023
308.15 K | 0.7814 ± 0.021 | 0.8809 ± 0.021 | 0.9724 ± 0.021 | 1.059 ± 0.022 | 1.14 ± 0.022 | 1.207 ± 0.022 | 1.267 ± 0.022 | 1.323 ± 0.022 | 1.366 ± 0.022
313.15 K | 0.737 ± 0.021 | 0.8284 ± 0.021 | 0.9144 ± 0.021 | 0.9933 ± 0.021 | 1.067 ± 0.022 | 1.132 ± 0.022 | 1.187 ± 0.022 | 1.24 ± 0.022 | 1.282 ± 0.022
318.15 K | 0.6786 ± 0.021 | 0.7611 ± 0.021 | 0.8372 ± 0.021 | 0.9111 ± 0.021 | 0.9802 ± 0.021 | 1.04 ± 0.022 | 1.093 ± 0.022 | 1.137 ± 0.022 | 1.175 ± 0.022

CCOP(=O)(OCC)OCC + CN(C)C=O
298.15 K, 101.3 kPa
Details | viscosity [mPa·s]
x1 = 0.1003 | 0.883 ± 0.021
x1 = 0.2008 | 0.967 ± 0.021
x1 = 0.298 | 1.044 ± 0.021
x1 = 0.398 | 1.123 ± 0.021
x1 = 0.4979 | 1.195 ± 0.021
x1 = 0.6076 | 1.268 ± 0.021
x1 = 0.6995 | 1.329 ± 0.021
x1 = 0.7969 | 1.389 ± 0.022
x1 = 0.8973 | 1.447 ± 0.022

CCc1ccccc1 + CN(C)C=O
viscosity [mPa·s], 101.33 kPa
Details | 303.15 K | 313.15 K
x2 = 0.0997 | 0.597 ± 0.005 | 0.542 ± 0.004
x2 = 0.1996 | – | 0.556 ± 0.004
x2 = 0.1997 | 0.614 ± 0.005 | –
x2 = 0.2997 | – | 0.568 ± 0.004
x2 = 0.2999 | 0.631 ± 0.005 | –
x2 = 0.4154 | 0.652 ± 0.005 | 0.584 ± 0.005
x2 = 0.5109 | 0.667 ± 0.005 | 0.597 ± 0.005
x2 = 0.584 | 0.679 ± 0.005 | 0.608 ± 0.005
x2 = 0.6991 | 0.696 ± 0.005 | 0.625 ± 0.005
x2 = 0.8014 | 0.709 ± 0.005 | 0.641 ± 0.005
x2 = 0.8872 | 0.719 ± 0.005 | 0.652 ± 0.005

Clc1ccccc1 + CN(C)C=O
viscosity [mPa·s], 101.33 kPa
Details | x2 = 0.1076 | x2 = 0.2986 | x2 = 0.397 | x2 = 0.5024 | x2 = 0.6054 | x2 = 0.7013 | x2 = 0.7925 | x2 = 0.8973
303.15 K | 0.731 ± 0.006 | 0.76 ± 0.006 | 0.767 ± 0.006 | – | 0.773 ± 0.006 | 0.774 ± 0.006 | 0.771 ± 0.006 | 0.754 ± 0.006
313.15 K | – | – | 0.69 ± 0.005 | 0.694 ± 0.005 | 0.695 ± 0.005 | 0.694 ± 0.005 | 0.688 ± 0.005 | –

N#CCCCCC#N + CN(C)C=O
303.15 K, 101.33 kPa
Details | viscosity [mPa·s]
x1 = 0.1051 | 0.9087 ± 0.0058
x1 = 0.2983 | 1.335 ± 0.0081
x1 = 0.3971 | 1.636 ± 0.0098
x1 = 0.4957 | 2.001 ± 0.012
x1 = 0.5919 | 2.413 ± 0.014
x1 = 0.6983 | 2.957 ± 0.017
x1 = 0.8486 | 3.821 ± 0.022

OCCCCCO + CN(C)C=O
308.15 K, 101 kPa
Details | viscosity [mPa·s]
x1 = 0.025 | 0.759 ± 0.039
x1 = 0.0483 | 0.826 ± 0.042
x1 = 0.1005 | 1.025 ± 0.051
x1 = 0.1877 | 1.446 ± 0.069
x1 = 0.2971 | 2.284 ± 0.11
x1 = 0.388 | 3.676 ± 0.17
x1 = 0.4882 | 5.774 ± 0.25
x1 = 0.586 | 9.073 ± 0.37
x1 = 0.6875 | 14.59 ± 0.57
x1 = 0.7802 | 22.71 ± 0.9
x1 = 0.9446 | 49.91 ± 2.1
x1 = 0.9714 | 56.42 ± 1.9

CCOP(=O)(OCC)OCC + CNC=O
298.15 K, 101.3 kPa
Details | viscosity [mPa·s]
x1 = 0.0969 | 1.719 ± 0.024
x1 = 0.1954 | 1.713 ± 0.023
x1 = 0.294 | 1.689 ± 0.023
x1 = 0.399 | 1.654 ± 0.023
x1 = 0.5004 | 1.625 ± 0.023
x1 = 0.5987 | 1.599 ± 0.022
x1 = 0.6978 | 1.571 ± 0.022
x1 = 0.799 | 1.546 ± 0.022
x1 = 0.8929 | 1.524 ± 0.022

CCCCn1cc[n+](C)c1.F[P-](F)(F)(F)(F)F + CO
Details | viscosity [mPa·s]
298.15 K, 101 kPa, x1 = 0.7082 | 45.95 ± 3

COC(C)(C)C + CO
298.15 K
Details | viscosity [mPa·s]
101 kPa, x1 = 0.0512 | 0.547 ± 0.01
101 kPa, x1 = 0.0994 | 0.536 ± 0.01
101 kPa, x1 = 0.1991 | 0.488 ± 0.009
101 kPa, x1 = 0.3011 | 0.455 ± 0.008
101 kPa, x1 = 0.4015 | 0.436 ± 0.008
101 kPa, x1 = 0.4993 | 0.42 ± 0.008
101 kPa, x1 = 0.6001 | 0.402 ± 0.008
101 kPa, x1 = 0.7001 | 0.387 ± 0.007
101 kPa, x1 = 0.8007 | 0.376 ± 0.007
101 kPa, x1 = 0.8998 | 0.366 ± 0.007
101 kPa, x1 = 0.9494 | 0.36 ± 0.007
101.33 kPa, x1 = 0.0048 | 0.549 ± 0.019
101.33 kPa, x1 = 0.0234 | 0.547 ± 0.019
101.33 kPa, x1 = 0.0483 | 0.544 ± 0.019
101.33 kPa, x1 = 0.0818 | 0.535 ± 0.019
101.33 kPa, x1 = 0.1136 | 0.526 ± 0.019
101.33 kPa, x1 = 0.1601 | 0.51 ± 0.018
101.33 kPa, x1 = 0.1987 | 0.496 ± 0.018
101.33 kPa, x1 = 0.2377 | 0.483 ± 0.018
101.33 kPa, x1 = 0.2656 | 0.475 ± 0.017
101.33 kPa, x1 = 0.3162 | 0.462 ± 0.017
101.33 kPa, x1 = 0.3736 | 0.446 ± 0.017
101.33 kPa, x1 = 0.4299 | 0.433 ± 0.016
101.33 kPa, x1 = 0.481 | 0.42 ± 0.016
101.33 kPa, x1 = 0.5141 | 0.413 ± 0.016
101.33 kPa, x1 = 0.5796 | 0.399 ± 0.015
101.33 kPa, x1 = 0.6163 | 0.394 ± 0.015
101.33 kPa, x1 = 0.7002 | 0.382 ± 0.015
101.33 kPa, x1 = 0.7768 | 0.37 ± 0.014
101.33 kPa, x1 = 0.8313 | 0.363 ± 0.014
101.33 kPa, x1 = 0.898 | 0.356 ± 0.014
101.33 kPa, x1 = 0.9429 | 0.346 ± 0.014

COCCOCCOCCOCCOC + CO
viscosity [mPa·s], 100 kPa
Details | 293.15 K | 298.15 K | 303.15 K
x2 = 0.0463 | 3.726 ± 0.15 | 3.3 ± 0.14 | 2.916 ± 0.12
x2 = 0.1031 | 3.616 ± 0.15 | 3.209 ± 0.13 | 2.845 ± 0.12
x2 = 0.1978 | 3.408 ± 0.14 | 3.036 ± 0.12 | 2.691 ± 0.11
x2 = 0.3111 | 3.132 ± 0.13 | 2.803 ± 0.12 | 2.493 ± 0.1
x2 = 0.3886 | 2.919 ± 0.12 | 2.611 ± 0.11 | 2.334 ± 0.096
x2 = 0.494 | 2.592 ± 0.11 | 2.326 ± 0.095 | 2.089 ± 0.085
x2 = 0.5935 | 2.25 ± 0.092 | 2.031 ± 0.083 | 1.829 ± 0.074
x2 = 0.6966 | 1.868 ± 0.076 | 1.696 ± 0.069 | 1.537 ± 0.062
x2 = 0.7966 | 1.467 ± 0.06 | 1.344 ± 0.055 | 1.225 ± 0.05
x2 = 0.8472 | 1.243 ± 0.051 | 1.145 ± 0.047 | 1.047 ± 0.043
x2 = 0.8972 | 1.024 ± 0.042 | 0.948 ± 0.039 | 0.871 ± 0.035
x2 = 0.9495 | 0.803 ± 0.033 | 0.744 ± 0.03 | 0.683 ± 0.028
